According to patent US10647719B2, “Bicyclic compounds as dual ATX/CA inhibitors” (Hoffmann-La Roche Inc., priority 2015, dated 2020):

How the values were obtained:
human ATX = human ATX (Homo sapiens (Human), UniProt Q13822); experiment: Human ATX enzyme inhibition assay (fluorescence quenching, MR121 substrate); format: biochemical; details: human His-tagged ATX 30 nM, MR121 substrate 1 μM, 30° C.; read-out: ATX IC50
Method in brief: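 Human His-tagged ATX (30 nM final) preincubated 15 min at 30 °C with serially diluted compounds in Tris buffer pH 8.0 with Ca2+, Mg2+ and 0.01% Triton X-100. MR121/tryptophan-labelled substrate analogue (1 μM final) then added for 15 min at 30 °C; cleavage read by fluorescence dequenching.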

[1] = molecular target: Human carbonic anhydrase II (hCA-II) (Homo sapiens (Human), UniProt P00918); experiment: Human carbonic anhydrase-II inhibition assay (absorbance, 4-nitrophenyl acetate substrate); format: biochemical; details: hCA II 8 nM, 4-NPA 2.5 mM, absorbance 340 nm, room temperature 1 hour; read-out: CA-II IC50

| Structure (SMILES) | IC50 (human ATX) | IC50 [1] |
| --- | --- | --- |
| CC(C)(C)C(=O)Nc1cc(C(F)(F)F)cnc1COC(=O)N1CC2=C(C1)CN(C(=O)c1c(F)cc(S(N)(=O)=O)cc1F)C2 [Example 1.11, [3-(2,2-dimethylpropanoylamino)-5-(trifluoromethyl)pyridin-2-yl]methyl 2-(2,6-difluoro-4-sulfamoylbenzoyl)-1,3,4,6-tetrahydropyrrolo[3,4-c]pyrrole-5-carboxylate] | 9 nM | 27 nM |
| CC(C)(C)C(=O)Nc1cc(C(F)(F)F)cnc1COC(=O)N1CC2=C(C1)CN(C(=O)c1ccc(S(N)(=O)=O)cc1)C2 [Example 1.00, [3-(2,2-Dimethylpropanoylamino)-5-(trifluoromethyl)pyridin-2-yl]methyl 2-(4-sulfamoylbenzoyl)-1,3,4,6-tetrahydropyrrolo[3,4-c]pyrrole-5-carboxylate] | 6 nM | 14 nM |
